Entries after “also recorded” stand apart in the source; their conditions may differ.
Key:
VP30_110–272 protein [1] = target: T1, VP30_110–272 protein (Zaire ebolavirus, UniProt Q05323); assay type: binding, Ebola virus
VP30_110–272 protein [2] = target: T1, VP30_110–272 protein; test: biochemical; assay type: binding, Ebola virus
[3] = target: VP30/NP interface (VP30_110–272 protein, NP-FITC peptide) (Zaire ebolavirus, UniProt Q05323); test: biochemical; assay type: binding, Ebola virus
VP30 protein = VP30 protein (Zaire ebolavirus, UniProt Q05323); assay type: binding, Ebola virus
[4] = test system: EBOV minigenome in Huh7-4P cells; assay type: cell-based, Ebola virus
[5] = test system: EBOV minigenome in Huh7-4P cells; assay type: cell-based, Ebola virus; remark: listed apart in the source
[6] = target: T2, Ebola virus VP30 110-272 protein (MBP tag removed) (Ebola virus (EBOV)), Q05323; test: fluorescence polarisation
T2 chain: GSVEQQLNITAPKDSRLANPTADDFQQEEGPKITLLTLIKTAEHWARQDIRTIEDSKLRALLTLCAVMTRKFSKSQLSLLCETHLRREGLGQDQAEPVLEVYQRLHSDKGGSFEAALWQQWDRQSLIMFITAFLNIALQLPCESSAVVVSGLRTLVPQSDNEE

[7] = target: NP-FITC (NP-derived VP30-binding peptide labelled with FITC) (Ebola virus (EBOV)); test: fluorescence polarisation

CCCCCCCCCCCC1=C(O)C(=O)C=C(O)C1=O [Embelin]
effect on stability / melting temperature (Tm) of VP30, TSA (VP30_110–272 protein [1]): can specifically bind to VP30 and change its melting temperature Tm; also recorded: increased the stability of VP30 at pH 6.5, 7.0, 7.5 and 8.0 | Kd (VP30_110–272 protein [2]): 4.62 µM | IC50 ([3]; IC50, competitive FP assay): 33.2 µM

O=C(O)c1cnc(O)nc1O [2,4-dihydroxypyrimidine-5-carboxylic acid]
competitive FP assay, result in words [3]: failed in the FP concentration gradient experiment

Cc1cc(SCc2sc(-c3ccc(C(F)(F)F)c(F)c3)nc2C)ccc1OCC(=O)O [GW0742]
binding to VP30 already bound to Embelin or 8-gingerol, synergy SPR (VP30 protein): a reduction in binding was observed | antiviral activity in MG assay, in words [4]: good antiviral activity | synergistic effect, in words [5]: does not exhibit obvious synergistic effects

B1: unlabeled NP peptide (NP-derived VP30-binding peptide) (peptide)
chain: PTVAPPAPVYR
modifications: not checked
IC50 [6]: 0.33 µM

B2: Ebola virus VP30 110-272 protein (MBP tag removed), Q05323 110-272 (domain or fragment)
chain: GSVEQQLNITAPKDSRLANPTADDFQQEEGPKITLLTLIKTAEHWARQDIRTIEDSKLRALLTLCAVMTRKFSKSQLSLLCETHLRREGLGQDQAEPVLEVYQRLHSDKGGSFEAALWQQWDRQSLIMFITAFLNIALQLPCESSAVVVSGLRTLVPQSDNEE
IC50 [7]: 3.07 µM

Reference: PMC9909651 (Acta Pharmacologica Sinica, 2023)
